Test results reported in US20070037782A1, “Therapeutic agent for ageing macular degeneration” (MEIJI DAIRIES CORPORATION, priority 2003, published 2007).

System: rat model of laser-induced choroidal neovascularization
Test: Inhibitory effect on choroidal neovascularization (CNV) after subconjunctival administration, rat model of laser-induced CNV
Type: in vivo, Rats (Brown Norway)
Conditions: for incidence of CNV relative to that of the base group: single subconjunctival administration, 14 days after photocoagulation, mean±S.E., P<0.01 vs base group
Method: An inhibitory effect on choroidal neovascularization caused by the subconjunctival administration of FMPA was assessed using a rat model of laser-induced choroidal neovascularization (which may hereinafter be abbreviated as CNV).
Rats (Brown Norway, 8 week old, male) were given general anesthesia and their pupils were dilated with one drop of commercially available eye-drops (“Mydrin P”, trade name; product of Santen Pharmaceutical Co. Ltd.) They were then subjected to photocoagulation by a krypton laser photocoagulation apparatus (“MC-7000L”, manufactured by NIDEK Co., Ltd.). The photocoagulation was performed sporadically at 8 sites while focusing on the deep layer of the retina and avoiding laser irradiation to thick retinal blood vessels (coagulation conditions: spot size of 100μm, output of 100 mW and coagulation time for 0.1 second). This photocoagulation was given to both eyes. After photocoagulation, the sites exposed to laser were confirmed by fundus photography. These rats were bred for 14 days, whereby CNV rat models were produced. […]
Fourteen days after photocoagulation, 0.1 mL of 10 wt.% fluorescein was injected through the caudal vein and based on the photograph taken by a fluorescein fundus camera (“Pro III”, product of Kowa Company Ltd), presence or absence of CNV was observed. […] A ratio of the number of positive sites to the number of all the exposed sites (8 sites) of eyeballs was calculated and the incidence of CNV of each administration group was calculated when the CNV incidence of the base group (Group 1) was assumed to be 1.00. […]
The incidence of CNV was expressed as a mean value±S.E. Comparison between the base group (Group 1) and each FMPA group (Groups 2 and 3) was made using analysis of variance, followed by Dunnett multiple comparison tests, while comparison between the base group and Comparative medicament group (Group 4) or comparison between the FMPA group (Group 2) and Comparative medicament group was made using t-test. […]

`CC(=O)O[C@]1(C(C)=O)CC[C@H]2[C@@H]3C[C@H](C)C4=CC(=O)CC[C@]4(C)[C@@]3(F)CC[C@@]21C` [FMPA, 9α-fluoromedroxyprogesterone acetate] was tested, and the “incidence of CNV relative to that of the base group” value (1000 μg/eye) was 62.2±6.7%, the “incidence of CNV relative to that of the base group” value (3000 μg/eye) was 48.9±6.5% and the “CNV inhibitory effect (in words)” value (1000 and 3000 μg/eye, subconjunctival, rat) was “dose-dependent CNV inhibitory effect”.
